Source: PubChem BioAssay (NCI)
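Following 48 hours of exposure in 96-well plates, responses at five concentrations were used to interpolate endpoints linearly. GI50 = concentration required for 50% inhibition of growth. TGI: total growth inhibition.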 Where a SMILES comes first, the peptide text is derived from it. [ ]: non-standard residue; d: D form.

Legend:
Experiment in all cases: NCI anticancer screen, dose series, 48 h
NCI-H460 lung = system: NCI-H460 lung
U251 CNS = system: U251 CNS
MOLT-4 leukemia = system: MOLT-4 leukemia
UACC-62 melanoma = system: UACC-62 melanoma
SW-620 colon = system: SW-620 colon
SNB-19 CNS = system: SNB-19 CNS
SF-539 CNS = system: SF-539 CNS
CCRF-CEM leukemia = system: CCRF-CEM leukemia
OVCAR-3 ovarian = system: OVCAR-3 ovarian
MDA-MB-231 breast = system: MDA-MB-231 breast

SMILES	TGI (NCI-H460 lung)	TGI (U251 CNS)	TGI (MOLT-4 leukemia)	TGI (UACC-62 melanoma)	TGI (SW-620 colon)	TGI (SNB-19 CNS)	TGI (SF-539 CNS)	TGI (CCRF-CEM leukemia)	TGI (OVCAR-3 ovarian)	TGI (MDA-MB-231 breast)	GI50 (UACC-62 melanoma)
COc1ccc(C(C2=C(O)CC(C)OC2=O)C2=C(O)CC(C)OC2=O)cc1 (centres undefined)	> 100 µM	> 100 µM	> 100 µM	> 100 µM	> 100 µM	> 100 µM	> 100 µM	> 100 µM	> 100 µM	–	–
CC(C)C[C@H](NC(=O)[C@H](CC(C)C)NC(=O)[C@@H](Cc1c[nH]c2ccccc12)NC(=O)[C@H](Cc1ccccc1)NC(=O)[C@@H](Cc1c[nH]c2ccccc12)NC(=O)[C@H](CCC(N)=O)NC(=O)[C@@H](CCC(N)=O)NC(=O)[C@@H]1CCCN1C(=O)[C@@H](CCCCN)NC(=O)[C@H]1CCCN1C(=O)[C@H](N)CCCN=C(N)N)C(N)=O (H-[dR][dP][dK]P[dQ]Q[dW]F[dW]LL-NH2)	> 100 µM	> 93.2 µM	> 79.5 µM	> 100 µM	> 100 µM	> 100 µM	> 100 µM	> 100 µM	> 100 µM	–	–
N#Cc1c(/C=C/c2ccccc2)c2c([nH]c1=S)CCCCC2	> 100 µM	> 100 µM	> 100 µM	–	> 100 µM	> 100 µM	> 100 µM	> 100 µM	> 100 µM	> 100 µM	–
COc1cc2c3c(n(C)c(=O)c2cc1OC)-c1cc2c(cc1/C3=C\CCCCl)OCO2	> 100 µM	> 100 µM	43.2 µM	> 100 µM	> 100 µM	> 100 µM	–	> 100 µM	–	> 100 µM	33.3 µM
C/C(=N\N=C(N)N)C(CN1CCOCC1)C(c1ccccc1)c1c(O)c2ccccc2oc1=O (centres undefined)	> 100 µM	> 100 µM	> 100 µM	> 100 µM	> 100 µM	> 100 µM	> 100 µM	> 100 µM	> 100 µM	–	–
O=C(CC12C3C4C1C1C2C3C41CC(=O)NO)NO (centres undefined)	62.5 µM	> 100 µM	> 100 µM	> 100 µM	> 100 µM	> 100 µM	> 100 µM	80.1 µM	> 100 µM	–	–
CCC[N+](C)(C)CCCNC(=O)c1c(O)c2ccccc2[nH]c1=O	> 100 µM	> 100 µM	> 100 µM	> 100 µM	> 100 µM	–	> 100 µM	> 100 µM	> 100 µM	> 100 µM	–
N#CC1=C(O)NC(O)=C(C#N)C1c1c(Cl)cccc1Cl	61.5 µM	> 100 µM	> 100 µM	> 100 µM	> 100 µM	> 100 µM	41.3 µM	> 100 µM	> 100 µM	–	–
O=C(CSc1nc2ccc(I)cc2c(=O)n1Cc1ccccc1)Nc1ccccc1	–	48.8 µM	> 100 µM	> 100 µM	> 100 µM	62.7 µM	10.6 µM	> 100 µM	40.4 µM	> 100 µM	–
CCOc1ccccc1N=NC1C(=O)N(C(=O)CC(=O)Nc2ccccc2C)N=C1C (centres undefined)	> 100 µM	49.1 µM	> 100 µM	> 100 µM	> 100 µM	–	> 100 µM	> 100 µM	> 100 µM	> 100 µM	–
O=C1CCCC1CC(CN1CCOCC1)Sc1nnnn1-c1ccccc1 (centres undefined)	–	> 100 µM	> 100 µM	> 100 µM	> 100 µM	> 100 µM	> 100 µM	> 100 µM	> 100 µM	> 100 µM	–
